Molecular target: T1, human CXCR4 receptor (Homo sapiens, UniProt P61073)
T1 construct: expressed in transfected cells
Assay: Measurement of intracellular Ca+2 responses (FLIPR), antagonism of the SDF-1α response
Format: cell-based
Conditions: for IC50: HEK-Gqi5 cells stably expressing human CXCR4, Fluo-4 FLIPR, antagonism of SDF-1α 1.9 nM (EC65); for CXCR4 (% Inh): percent antagonism of SDF-1α 1.9 nM (EC65) response, HEK-Gqi5 human CXCR4 cells, value in brackets
How it was run: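 HEK-Gqi5 cells stably expressing CXCR4, Fluo-4-loaded (2 uM, 40 min, 37 °C), read on FLIPR. Compound (2.44-40,000 nM) added first for agonism, then SDF-1α at 1.9 nM final (EC65); IC50 and percent antagonism from second-addition calcium signal.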

T1 sequence (P61073 whole entry): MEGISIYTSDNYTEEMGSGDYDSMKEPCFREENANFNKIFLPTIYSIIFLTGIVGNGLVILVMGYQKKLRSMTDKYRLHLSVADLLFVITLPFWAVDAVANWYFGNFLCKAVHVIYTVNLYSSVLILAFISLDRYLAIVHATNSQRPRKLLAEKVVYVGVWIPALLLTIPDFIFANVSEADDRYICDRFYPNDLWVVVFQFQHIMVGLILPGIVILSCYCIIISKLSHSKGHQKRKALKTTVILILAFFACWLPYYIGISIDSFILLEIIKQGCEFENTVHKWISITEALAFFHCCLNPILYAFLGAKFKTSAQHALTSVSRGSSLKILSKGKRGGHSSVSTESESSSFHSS

Structure (SMILES) | IC50 (values in nM) [nM] | CXCR4 (% Inh) [%] | IC50 (values given in μM) [nM]
COc1cccc(N(C)C)c1CN1CCC(Nc2nc(NCCNC(C)=O)nc3ccccc23)CC1 [Compound 118, N-(2-(4-(1-(2-(Dimethylamino)-6-methoxybenzyl)piperidin-4-ylamino)quinazolin-2-ylamino)ethyl)acetamide] | 762 | 97 | 
COc1cccc(N(C)C)c1CN1CCC(Nc2nc(NCc3ccccn3)nc3ccccc23)CC1 [Compound 84, N4-(1-(2-(Dimethylamino)-6-methoxybenzyl)piperidin-4-yl)-N2-(pyridin-2-ylmethyl)quinazoline-2,4-diamine] | 574 | 95 | 
CCN(CC)CCCNc1nc(NC2CCN(Cc3cccc(C)c3N(C)C)CC2)c2ccccc2n1 [Compound 152, N˜2˜-[3-(Diethylamino)propyl]-N˜4˜-{1-[2-(dimethylamino)-3-methylbenzyl]piperidin-4-yl}quinazoline-2,4-diamine] |  | 100 | 1400
COc1cccc(N(C)C)c1CN1CCC(Nc2nc(N3CC3)nc3ccccc23)CC1 [Compound 92, 2-(Aziridin-1-yl)-N-(1-(2-(dimethylamino)-6-methoxybenzyl)piperidin-4-yl)quinazolin-4-amine] |  | 75 | 2100
CCCCNc1nc(NC2CCN(Cc3c(OC)cccc3N(C)C)CC2)c2ccccc2n1 [Compound 91, N2-Butyl-N4-(1-(2-(dimethylamino)-6-methoxybenzyl)piperidin-4-yl)quinazoline-2,4-diamine] |  | 80 | 2000
COc1cccc(N(C)C)c1CN1CCCC(Nc2nc(NCCCN(C)C)nc3ccccc23)CC1 (centres unmarked) [Compound 174, N˜4˜-{1-[2-(Dimethylamino)-6-methoxybenzyl]azepan-4-yl}-N˜2˜-[3-(dimethylamino)propyl]quinazoline-2,4-diamine] | 770 | 97 | 
CCN(CC)CCCNc1nc(NC2CCN(Cc3c(OC)cccc3N(C)C)CC2)c2cc(OC)c(OC)cc2n1 [Compound 42, N2-(3-(Diethylamino)propyl)-N4-(1-(2-(dimethylamino)-6-methoxybenzyl)piperidin-4-yl)-6,7-dimethoxyquinazoline-2,4-diamine] | 179 | 98 | 
CCN(CC)CCCNc1nc(NC2CCN(Cc3ccccc3N(C)C)CC2)c2ccccc2n1 [Compound 35, N2-(3-(Diethylamino)propyl)-N4-(1-(2-(dimethylamino)benzyl)piperidin-4-yl)quinazoline-2,4-diamine] | 330 | 90 | 

More lines, now with the values ahead:

IC50 (values in nM) [nM] | CXCR4 (% Inh) [%] | IC50 (values given in μM) [nM] | Structure (SMILES)
118 | 98 |  | COc1cccc(N(C)C)c1CN1CCC(Nc2nc(NCCN(C)C)nc3ccccc23)CC1 [Compound 153, N˜2˜-[2-(Dimethylamino)ethyl]-N˜4˜-{1-[2-(dimethylamino)-6-methoxybenzyl]piperidin-4-yl}quinazoline-2,4-diamine]
131 | 96 |  | COc1cc2nc(SCCN(C)C)nc(NC3CCN(Cc4c(OCCN(C)C)cccc4N(C)C)CC3)c2cc1OC [Compound 231, N-(1-(2-(Dimethylamino)-6-(2-(dimethylamino)ethoxy)benzyl)piperidin-4-yl)-2-(2-(dimethylamino)ethylthio)-6,7-dimethoxyquinazolin-4-amine]
30 | 100 |  | COc1cc2nc(NCc3ncc[nH]3)nc(NC3CCN(Cc4c(OCCN(C)C)cccc4N(C)C)CC3)c2cc1OC [Compound 213, N˜4˜-(1-{2-(Dimethylamino)-6-[2-(dimethylamino)ethoxy]benzyl}piperidin-4-yl)-N˜2˜-(1H-imidazol-2-ylmethyl)-6,7-dimethoxyquinazoline-2,4-diamine]
36 | 98 |  | COc1cc2nc(NCc3cncn3C)nc(NC3CCN(Cc4c(OCCN(C)C)cccc4N(C)C)CC3)c2cc1OC [Compound 198, N˜4˜-(1-{2-(Dimethylamino)-6-[2-(dimethylamino)ethoxy]benzyl}piperidin-4-yl)-6,7-dimethoxy-N˜2˜-[(1-methyl-1H-imidazol-5-yl)methyl]quinazoline-2,4-diamine]
19 | 94 |  | COc1cc2nc(NCCCN(C)C)nc(NC3CCN(Cc4c(OCCN(C)C)cccc4N(C)C)CC3)c2cc1OC [Compound 76, N4-(1-(2-(Dimethylamino)-6-(2-(dimethylamino)ethoxy)benzyl)piperidin-4-yl)-N-2-(3-(dimethylamino)propyl)-6,7-dimethoxyquinazoline-2,4-diamine]
71 | 98 |  | CN(C)CCCNc1nc(NC2CCN(Cc3c(OCCN(C)C)cccc3N(C)C)CC2)c2ccccc2n1 [Compound 228, N4-(1-(2-(Dimethylamino)-6-(2-(dimethylamino)ethoxy)benzyl)piperidin-4-yl)-N2-(3-(dimethylamino)propyl)quinazoline-2,4-diamine]
140 | 100 |  | COc1cccc(N(C)C)c1CN1CCC(Nc2nc(NCCC3CCCN3C)nc3ccccc23)CC1 (centres unmarked) [Compound 97, N4-(1-(2-(Dimethylamino)-6-methoxybenzyl)piperidin-4-yl)-N2-(2-(1-methylpyrrolidin-2-yl)ethyl)quinazoline-2,4-diamine]
74 | 96 |  | COc1cc2nc(NC[C@@H](O)CO)nc(NC3CCN(Cc4c(OCCN(C)C)cccc4N(C)C)CC3)c2cc1OC [Compound 194, 3-({4-[(1-{2-(Dimethylamino)-6-[2-(dimethylamino)ethoxy]benzyl}piperidin-4-yl)amino]-6,7-dimethoxyquinazolin-2-yl}amino)propane-1,2-diol]
